Test systems include TK-10 renal; OVCAR-5 ovarian; OVCAR-3 ovarian; SN12C renal; SK-MEL-2 melanoma; SNB-75 CNS; K-562 leukemia; SNB-19 CNS; SF-539 CNS; OVCAR-8 ovarian.
Holding throughout (experiment): NCI-60 cell line screen, 48 h

Experimental findings from PubChem BioAssay (NCI) are described below.

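Cells were grown in 96-well plates and exposed to each compound for 48 hours at five concentrations; endpoints were interpolated linearly between bracketing concentrations, or set to the highest concentration if not reached. GI50: concentration for 50% inhibition of growth. TGI denotes the concentration required for complete inhibition of growth.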 Bounds are passed on as bounds.

As for `O=C1c2cccnc2-c2nc(-c3ccccc3[N+](=O)[O-])cc3c2c1nc1ccccc13`, the GI50 was 14.7 µM with TK-10 renal; 6.99 µM with OVCAR-5 ovarian; 0.432 µM with OVCAR-3 ovarian; 15.6 µM with SN12C renal; 10.3 µM in the assay with SK-MEL-2 melanoma; 17.3 µM in the assay on SNB-75 CNS. Further, the GI50 with K-562 leukemia was more than 28.8 µM; in the assay on SNB-19 CNS, 24.2 µM; in the assay on SF-539 CNS, 6.3 µM; with OVCAR-8 ovarian it was 13.1 µM. For the same compound, the TGI in the assay on TK-10 renal is 36.3 µM; in the assay with OVCAR-5 ovarian, 33.4 µM; with OVCAR-3 ovarian, more than 32.4 µM; with SN12C renal, 37.9 µM; with SK-MEL-2 melanoma, 53.1 µM; in the assay with SNB-75 CNS, 52 µM. In addition, the TGI with K-562 leukemia is more than 100 µM; in the assay with SNB-19 CNS, 84.7 µM; with SF-539 CNS it was 24.3 µM; in the assay with OVCAR-8 ovarian it was 44.2 µM.

Regarding `Cc1cc(=O)n2[nH]c(-c3ccc(C(C)(C)C)cc3)cc2n1`, the GI50 in the assay with TK-10 renal is 3.5 µM; with OVCAR-5 ovarian it was 17.7 µM; with OVCAR-3 ovarian it was 3.24 µM; with SN12C renal, 12.3 µM; in the assay with SK-MEL-2 melanoma, 10.5 µM; in the assay on SNB-75 CNS, 7.9 µM. The GI50 with K-562 leukemia is 6.72 µM; in the assay on SNB-19 CNS it was 10.1 µM; in the assay on SF-539 CNS, 9.01 µM; with OVCAR-8 ovarian it was 11.2 µM. Also, the TGI in the assay on TK-10 renal was 61.8 µM; in the assay on OVCAR-5 ovarian, more than 100 µM; in the assay on OVCAR-3 ovarian, 43.5 µM; with SN12C renal it was more than 100 µM; in the assay on SK-MEL-2 melanoma, 65.5 µM; in the assay with SNB-75 CNS it was 46.8 µM. The TGI in the assay with K-562 leukemia, with SNB-19 CNS, in the assay on SF-539 CNS and with OVCAR-8 ovarian was more than 100 µM throughout.

As for `O=C(Nc1ccc(F)cc1F)c1cc(I)ccc1O`, the GI50 with TK-10 renal is 4.73 µM; with OVCAR-5 ovarian it was 3.72 µM; with OVCAR-3 ovarian, 3.13 µM; in the assay with SN12C renal, 2.46 µM; in the assay with SK-MEL-2 melanoma, 2.29 µM; in the assay with SNB-75 CNS, 1.36 µM. In addition, the GI50 in the assay with K-562 leukemia is 3.16 µM; in the assay with SNB-19 CNS it was 3.11 µM; with SF-539 CNS, 2.83 µM; in the assay on OVCAR-8 ovarian, 3.23 µM. Moreover, the TGI is 31.1 µM in the assay on TK-10 renal; more than 100 µM in the assay with OVCAR-5 ovarian; 23.2 µM with OVCAR-3 ovarian; 8.54 µM in the assay with SN12C renal; 6.07 µM in the assay with SK-MEL-2 melanoma; 4.58 µM with SNB-75 CNS. Besides, the TGI with K-562 leukemia was more than 100 µM; with SNB-19 CNS, more than 100 µM; in the assay on SF-539 CNS it was 10.2 µM; in the assay with OVCAR-8 ovarian it was more than 100 µM.

For the compound `COc1ccc2c(c1)C(=O)/C(=C/c1ccc(OCC(=O)Nc3nccs3)cc1)O2`, the GI50 was 3.39 µM in the assay with TK-10 renal; 1.79 µM in the assay with OVCAR-5 ovarian; 0.204 µM with OVCAR-3 ovarian; 2.51 µM with SN12C renal; 0.231 µM in the assay on SK-MEL-2 melanoma; 0.629 µM in the assay on SNB-75 CNS. Also, the GI50 is 1.84 µM in the assay with K-562 leukemia, 20.4 µM with SNB-19 CNS, 0.184 µM with SF-539 CNS and 17.2 µM in the assay on OVCAR-8 ovarian. The TGI worked out at 17.8 µM with TK-10 renal; 10.2 µM with OVCAR-5 ovarian; 0.398 µM with OVCAR-3 ovarian; 18.9 µM with SN12C renal; 0.588 µM in the assay on SK-MEL-2 melanoma; 9.38 µM with SNB-75 CNS. Besides, the TGI with SNB-19 CNS was more than 65.7 µM; with SF-539 CNS, 0.361 µM; in the assay on OVCAR-8 ovarian, more than 60.5 µM.

Regarding `NS(=O)(=O)c1ccccc1C(=O)N/N=C(\c1nc2ccc([N+](=O)[O-])cc2[nH]c1=O)C(O)c1ccc([N+](=O)[O-])cc1` (centres undefined), the TGI in the assay on TK-10 renal, in the assay with OVCAR-5 ovarian, in the assay with OVCAR-3 ovarian, with SN12C renal, in the assay on SK-MEL-2 melanoma and in the assay on SNB-75 CNS was more than 100 µM each time. Also, the TGI in the assay on K-562 leukemia, in the assay on SNB-19 CNS, in the assay on SF-539 CNS and with OVCAR-8 ovarian was more than 100 µM each time.

Regarding `COc1cc(/C=C/c2cc(/C=C/c3ccc(O)c(OC)c3)n(C(=O)Nc3ccc(F)cc3)n2)ccc1O`, the GI50 in the assay with TK-10 renal is 3.43 µM; in the assay with OVCAR-5 ovarian it was 3.99 µM; in the assay on OVCAR-3 ovarian, 0.474 µM; with SN12C renal, 0.953 µM; in the assay with SK-MEL-2 melanoma, 0.515 µM; with SNB-75 CNS, 0.551 µM. Besides, the GI50 is 0.371 µM in the assay on K-562 leukemia, 1.23 µM with SNB-19 CNS, 0.46 µM with SF-539 CNS and 1.5 µM in the assay with OVCAR-8 ovarian. The TGI turned out to be 19.2 µM in the assay with TK-10 renal; 45 µM with OVCAR-5 ovarian; 3.13 µM in the assay with OVCAR-3 ovarian; 34.1 µM with SN12C renal; 3.32 µM with SK-MEL-2 melanoma; 9.48 µM in the assay on SNB-75 CNS. Also, the TGI came to 2.91 µM in the assay with K-562 leukemia, 22.7 µM in the assay on SNB-19 CNS, 5.31 µM in the assay on SF-539 CNS and 4.79 µM in the assay on OVCAR-8 ovarian.

For the compound `O[C@H]1[C@H]2c3cc4c(cc3CN3CCC(=C[C@@H]1O)[C@H]23)OCO4`, the TGI was found to be 11.9 µM with TK-10 renal; 22 µM with OVCAR-5 ovarian; 11.9 µM with OVCAR-3 ovarian; 9.5 µM in the assay on SN12C renal; 2.12 µM in the assay with SK-MEL-2 melanoma; 24.9 µM in the assay on SNB-75 CNS. The TGI in the assay with K-562 leukemia came to 12 µM; in the assay on SNB-19 CNS, 14.9 µM; with SF-539 CNS, 5.74 µM; in the assay on OVCAR-8 ovarian, 7.55 µM.

With `Cc1cc(=O)[nH]c2cc3oc4ccccc4c3cc12`, the TGI with TK-10 renal was more than 100 µM; in the assay with OVCAR-5 ovarian it was more than 100 µM; in the assay on OVCAR-3 ovarian, more than 89.4 µM; with SN12C renal it was more than 100 µM; in the assay on SK-MEL-2 melanoma, more than 100 µM; in the assay on SNB-75 CNS, more than 100 µM. Besides, the TGI in the assay on K-562 leukemia, in the assay with SNB-19 CNS, in the assay with SF-539 CNS and in the assay with OVCAR-8 ovarian was more than 100 µM each time.

Take `CC(C)c1ccc(C(C)C(=O)N(CC2=C(C(C)c3ccccn3)c3ccccc3C2)C(C)C)cc1` (centres undefined): the GI50 with TK-10 renal was 4.81 µM; in the assay with OVCAR-5 ovarian, 5.33 µM; in the assay with OVCAR-3 ovarian, 3.26 µM; in the assay with SN12C renal, 1.88 µM; in the assay on SK-MEL-2 melanoma, 2.55 µM; in the assay on SNB-75 CNS it was 3.17 µM. Further, the GI50 is 2.39 µM with K-562 leukemia, 6.66 µM in the assay on SNB-19 CNS, 5.62 µM in the assay with SF-539 CNS and 3.82 µM in the assay with OVCAR-8 ovarian. Further, the TGI in the assay on TK-10 renal was more than 100 µM; in the assay with OVCAR-5 ovarian, 95.9 µM; in the assay with OVCAR-3 ovarian, 11.6 µM; in the assay on SN12C renal, 3.51 µM; in the assay on SK-MEL-2 melanoma, 7.15 µM; with SNB-75 CNS, more than 100 µM. Further, the TGI was 15 µM with K-562 leukemia, more than 100 µM with SNB-19 CNS, 26.7 µM with SF-539 CNS and more than 100 µM with OVCAR-8 ovarian.
